Measured values as given in paper PMC6395926, “Mass Balance and Drug Interaction Potential of Intravenous Eravacycline Administered to Healthy Subjects” (Antimicrobial Agents and Chemotherapy, 2019).

How the values were obtained:
[1] = design: species or system human; conditions: in vivo
Protocol: (§1) (iii) Study assessments. Blood samples for PK analysis of eravacycline and its metabolites, TP-498, TP-6208, and TP-034, were collected predose and 1, 2, 4, 6, 8, 12, 24, 36, and 48 h after the start of the i.v. infusion on day 1 and day 10 (itraconazole) or day 1 and day 17 (rifampin). Safety assessments included AEs, clinical laboratory safety tests (hematology, serum chemistry, electrolytes, coagulation, urinalysis, and lipid profile), vital signs, physical examinations, and 12-lead ECG.

[2] = Drug interaction study with rifampin (CYP3A4 inducer): plasma PK of i.v. eravacycline and metabolites; type: in vivo, human; conditions: for AUC0–24 / AUC(0-inf) / clearance / half-life / Vd / Cmax: n = 12; for Vd: read-out: Vss; for Cmax: iv
Protocol: (§2) Two single-center, open-label studies were conducted to evaluate the effects of itraconazole (CYP3A4 inhibitor) and rifampin (CYP3A4 inducer) on the pharmacokinetics of i.v. eravacycline in healthy subjects.
(ii) Study design. Each study included a 28-day screening period, a 13-day treatment period (19 days for rifampin), and an end-of-study visit 2 weeks after the last dose of study drug. […] For the itraconazole study, 200 mg oral itraconazole was administered q12h on day 8 and q24h on days 9 and 10. For the rifampin study, 600 mg oral rifampin was administered q24h from day 8 to day 17. All study treatments were administered in the fasting state.
as §1
(§3) Concentrations of eravacycline, TP-498, and TP-6208 in human plasma samples were measured by LC-tandem MS after solid-phase extraction over a calibration range of 5.00 to 500 ng/ml. The LLOQ for eravacycline, TP-498, TP-6208, and TP-034 in human plasma was 5.00 ng/ml. Samples with eravacycline initial concentrations above the upper limit of quantification (500 ng/ml) were diluted appropriately with control blank human plasma and reanalyzed. There was no interference seen when human plasma was fortified with eravacycline, TP-498, TP-6208, and either itraconazole or rifampin.
(§4) (iv) Pharmacokinetic analysis. PK assessments included Cmax, Tmax, AUC0–24, AUC0–t, t1/2, CL, and Vss. Actual sampling time was used for PK calculations. PK parameters were derived by noncompartmental analysis. Descriptive statistics were calculated for analyte concentrations at each evaluation time point and for all quantitative PK parameters of eravacycline, TP-498, TP-6208, and TP-034 for day 1 and day 10 (day 17 for rifampin). The effect of itraconazole or rifampin on the PK profile of i.v. eravacycline was evaluated by comparing log-transformed PK parameters (Cmax and AUC0–t) associated with the administration of study drug on day 1 and day 10 (itraconazole) or day 1 and day 17 (rifampin) using paired t tests. The ratio and 90% confidence interval (CI) were presented after back transformation to the original scale. Pharmacokinetic variables were calculated using WinNonlin Professional.

[3] = design: method as in PMID 30150464; conditions: healthy volunteers, i.v. 1 mg/kg q12h for 10 days; cited from earlier work
[4] = Drug interaction study with itraconazole (CYP3A4 inhibitor): plasma PK of i.v. eravacycline and metabolites; type: in vivo, human; conditions: for AUC(0-t) / Cmax / clearance / half-life / Vd: human, plasma, iv, mean ± SD, n = 10; for Vd: read-out: Vss
Protocol: as §2
(ii) Study design. Each study included a 28-day screening period, a 13-day treatment period (19 days for rifampin), and an end-of-study visit 2 weeks after the last dose of study drug. Eravacycline was administered in the morning as a 1-mg/kg i.v. infusion over 60 min on day 1 with a second dose on day 10 (itraconazole study) or day 17 (rifampin study). For the itraconazole study, 200 mg oral itraconazole was administered q12h on day 8 and q24h on days 9 and 10. For the rifampin study, 600 mg oral rifampin was administered q24h from day 8 to day 17. All study treatments were administered in the fasting state.
as §1, §3, §4

[5] = Drug interaction study with rifampin (CYP3A4 inducer): plasma PK of i.v. eravacycline and metabolites; type: in vivo; conditions: human, intravenous, day 17, eravacycline plus rifampin, read-out: AUC0–t (distribution, as worded in the text)
[6] = Mass balance study: safety/tolerability; type: in vivo, human
Protocol: Safety was assessed from adverse events (AEs), physical examinations, laboratory safety tests (hematology, coagulation, clinical chemistry, and urinalysis), vital signs, ECGs, and body weight.

[7] = Mass balance study: excretion of radioactivity in urine and feces after i.v. [14C]eravacycline; type: in vivo, human; conditions: 60 mg [14C]eravacycline i.v.
Source text: (ii) Study design. This was a single-center, open-label study of a single i.v. dose of [^14C]eravacycline to assess the mass balance recovery and PK of eravacycline. The primary objectives were to determine mass balance recovery, determine routes and rates of excretion, provide metabolite profiling and structural identification, and assess the PK of radioactivity in plasma and whole blood. Subjects were screened for inclusion in the study, including a detailed medical history, physical examination, and laboratory evaluations, in the 28 days before dosing. […] After an overnight fast, each subject received 60 mg [^14C]eravacycline containing not more than 3.8 MBq (105 μCi) ^14C as a single i.v. infusion over 60 min.
(v) Excretion of radioactivity. Mass balance was determined from the incremental amount and cumulative amount excreted in urine, feces, and urine and feces combined. Amount excreted and amount excreted expressed as a percentage of administered dose were determined for urine, feces, and total samples.

[8] = eravacycline plus rifampin (day 17) vs eravacycline alone (day 1), 1 mg/kg i.v.
[9] = human, plasma, intravenous, 1 mg/kg, day 1, eravacycline alone, mean ± SD
[10] = human, plasma, intravenous, day 17, with rifampin, mean ± SD
[11] = eravacycline plus itraconazole (day 10) vs eravacycline alone (day 1), 1 mg/kg i.v.
[12] = day 1, eravacycline 1 mg/kg i.v. alone
[13] = day 10, eravacycline 1 mg/kg i.v. with itraconazole

## CN(C)[C@@H]1C(O)=C(C(N)=O)C(=O)[C@@]2(O)C(O)=C3C(=O)c4c(O)c(NC(=O)CN5CCCC5)cc(F)c4C[C@H]3C[C@@H]12 [eravacycline]
[1]; human, iv
  subjects who experienced an AE: 25.0%
[1]
  serious AEs or discontinuations for AEs related to study drug: No serious AEs
[2]; day 1, eravacycline alone, mean ± SD
  AUC0–24: 4,100 ± 589 h·ng/ml
[2]; day 17, with rifampin, mean ± SD
  AUC0–24: 3,090 ± 568 h·ng/ml
[2]; day 17 vs day 1
  decrease of AUC0–24 with coadministration of rifampin: approximately 25%
  decrease of AUC0–∞ with coadministration of rifampin: ~35%
  increase of CL with coadministration of rifampin: approximately 50%
[2]; [8]
  Ratio of geometric mean AUC0–t, day 17/day 1: 67.9%
  Ratio of geometric mean Cmax, day 17/day 1: 106.5%
[2]; [9]
  AUC(0-inf): 5380 ng·h/mL
  clearance: 3.2 ± 0.6 mL/min/kg
  half-life: 900 ± 120 min
  Vd: 2.85 ± 0.29 L/kg
[2]; human, plasma, intravenous, 1 mg/kg, day 1, eravacycline alone, read-out: AUC0–t (distribution, as worded in the text)
  AUC(0-t): 4100 ng·h/mL
[2]; [10]
  AUC(0-inf): 3520 ng·h/mL
  clearance: 4.94 ± 1.08 mL/min/kg
  half-life: 660 ± 138 min
  Vd: 2.49 ± 0.51 L/kg
[2]; human, plasma, day 1, eravacycline 1 mg/kg i.v. alone, mean ± SD
  Cmax: 1170 ng/mL
[2]; human, plasma, day 17, eravacycline 1 mg/kg i.v. with rifampin 600 mg daily day 8 to 17, mean ± SD
  Cmax: 1260 ng/mL
[3]
  AUC0–12: 6,309 ng·h/ml
  clearance (CL): 0.16 L/h/kg
  mean peak plasma concentration (Cmax): 1,825 ng/ml
  volume of distribution at steady state (Vss): 4.0 L/kg
[4]; [11]
  Ratio of geometric mean AUC0–t, day 10/day 1: 134.3%
  Ratio of geometric mean Cmax, day 10/day 1: 107.9%
[4]; eravacycline plus itraconazole day 10 vs day 1
  decrease of CL with itraconazole: about 30%
[4]; [12]
  AUC(0-t): 4320 ng·h/mL
  Cmax: 1100 ng/mL
  clearance: 3.79 ± 1.03 mL/min/kg
  half-life: 840 ± 144 min
  Vd: 3.42 ± 0.73 L/kg
[4]; [13]
  AUC(0-t): 5700 ng·h/mL
  Cmax: 1160 ng/mL
  clearance: 2.57 ± 0.5 mL/min/kg
  half-life: 1140 ± 216 min
  Vd: 3.37 ± 0.56 L/kg
[5]
  AUC(0-t): 3090 ng·h/mL
[6]
  serious or severe AEs: No serious or severe AEs
[6]; 5 male subjects
  number of subjects who experienced drug-related AEs: 3
[6]; 5 male subjects, single i.v. dose
  subjects who experienced at least 1 adverse effect (AE): 80%
[7]
  Renal excretion, share of the dose: approximately 34%
  total radioactivity recovered in the feces: 47.8%
[7]; 288-h collection period
  total radioactive dose recovered in the urine and feces: 82.8%
[7]; urine and feces
  share of the dose recovered within the first 72 h: Approximately half
